The results in this text go back to the NIST ThermoML archive (doi:10.1016/j.jct.2014.09.005).

The conditions of series [1]: 101.33 kPa, Liquid; for viscosity: Capillary tube (Ostwald / Ubbelohde) method; for mass density: Vibrating tube method.
The nature of series [2]: refractive index (Na D-line) (dimensionless). To be noted: 101.33 kPa, Liquid, Standard Abbe refractometry.

± gives the expanded uncertainty stated by the source.

The viscosity is the resistance of a fluid to flow. By mass density is commonly meant the mass of a sample divided by its volume. One may read the refractive index as a measure of how strongly the sample bends light. As to `NC1CCCCC1` [cyclohexylamine], the viscosity in series [1] (293.15 K) is listed as 2.142 ± 0.046 mPa·s; in series [1] (298.15 K), 1.909 ± 0.041 mPa·s; in series [1] (303.15 K), 1.699 ± 0.036 mPa·s. Moreover, the mass density stood at 867.2 ± 0.24 kg/m3 in series [1] (293.15 K), 862.69 ± 0.24 kg/m3 in series [1] (298.15 K) and 858.12 ± 0.24 kg/m3 in series [1] (303.15 K). Further, the refractive index in series [2] (293.15 K) is on record as 1.45936 ± 0.00037; in series [2] (298.15 K), 1.45694 ± 0.00037; in series [2] (303.15 K) it was 1.45427 ± 0.00037.
On to `CCCCCCCCCCO` [decan-1-ol], for which the viscosity in series [1] (293.15 K) was determined as 14.52 ± 0.3 mPa·s; in series [1] (298.15 K), 11.82 ± 0.25 mPa·s; in series [1] (303.15 K), 9.738 ± 0.2 mPa·s. Further, the mass density in series [1] (293.15 K) came to 829.97 ± 0.24 kg/m3; in series [1] (298.15 K), 826.58 ± 0.24 kg/m3; in series [1] (303.15 K), 823.13 ± 0.24 kg/m3. In addition, the refractive index in series [2] (293.15 K) was 1.43728 ± 0.00037; in series [2] (298.15 K) it was 1.43531 ± 0.00037; in series [2] (303.15 K), 1.43345 ± 0.00037.
In the case of `CCCCCCCO` [heptan-1-ol], the viscosity in series [1] (293.15 K) was determined as 7.106 ± 0.15 mPa·s; in series [1] (298.15 K), 5.966 ± 0.13 mPa·s; in series [1] (303.15 K), 4.841 ± 0.1 mPa·s. Moreover, the results for the mass density in series [1] (293.15 K), in series [1] (298.15 K) and in series [1] (303.15 K) were 822.52 ± 0.24 kg/m3, 818.99 ± 0.24 kg/m3 and 815.4 ± 0.24 kg/m3, respectively. The refractive index in series [2] (293.15 K) is 1.42429 ± 0.00037; in series [2] (298.15 K), 1.42227 ± 0.00037; in series [2] (303.15 K) it was 1.42023 ± 0.00037.
